Like-named read-outs stand apart in the source and are kept apart here.

The values that follow come from patent EP4803080A1, “METHOD FOR TREATING LEUKEMIA” (Shenzhen TargetRx Co., Ltd., priority 2023, dated 2025).

For series [1], the system named is Ba/F3 BCR-ABL1 Q252H/T315I. The experiment in a line: Cell growth inhibition activity test, single agents and combinations (CellTiter-Glo, Chou-Talalay). It is filed as cell-based, mouse. As to conditions: for IC50: Mus musculus, BaF3, 72 h. As for the experimental part:
(§1) A series of cell lines expressing BCR-ABL1 single mutations and compound mutations were constructed based on the Ba/F3 mouse pro-B cell line.
(§2) This assay utilized the CellTiter-Glo (CTG) kit provided by Promega, which is a homogeneous method for cell viability detection, measuring the viability of cultured cells by quantifying ATP. Cells were seeded in 96-well plates and treated with different concentrations of test substances. […] At the end of the treatment, CTG reagent (CellTiter-Glo kit) was added according to the manufacturer's instructions to detect cell viability values. Plates were read on a microplate reader (Biotek cytation 3.0). IC50 values were calculated using GraphPad Prism 7.0 software.

Series [2] concerns Ba/F3 BCR-ABL1 Y253H/T315I. Described as above. In kind it is cell-based, mouse. Conditions: Mus musculus; for IC90: Fig. 3. How it is done:
as §1, §2

In series [3] the test system is Ba/F3 BCR-ABL1 E255V/T315I. Described as above. As to conditions: Mus musculus, BaF3, 72 h. In kind it is cell-based. As for the experimental part: as §1, §2
For the next series, the system named is Ba/F3 BCR-ABL1 T315M. The series is described as above. It is filed as cell-based, mouse. How it is done: as §1, §2
For series [4] the following is noted: clinical dose of 45 mg QD; cited from earlier work.
A short description of series [5]: Tissue distribution study using quantitative whole-body autoradiography (QWBA). It is filed as in vivo, Long-Evans rats and Sprague-Dawley rats. As to conditions: single oral 50 mg/100 µCi/kg. As for the experimental part:
This test utilized a total of 8 male Long Evans (LE) rats, randomly designated as Gt1M01 to Gt1M08; and 4 Sprague-Dawley (SD) rats, with an equal number of males and females, randomly designated as Gt2M01 to Gt2M02 and Gt2F01 to Gt2F02. Each rat received a single oral dose of 50 mg/100 µCi/kg of [^14C]-Compound A via gavage. SD rats were euthanized at 4 hours and 72 hours post-dose (with the 72-hour rats serving as backups); LE rats were euthanized at 0.5 hours, 4 hours, 24 hours, 72 hours, 168 hours, 336 hours, 504 hours, and 840 hours post-dose (with the 504-hour and 840-hour rats serving as backups). According to the rat sequence numbers, one male and one female SD rat and one male LE rat were transferred to an induction chamber, euthanized with an overdose of carbon dioxide, and about 4 mL of whole blood was collected via cardiac puncture. Immediately after blood collection, the carcasses were immersed in a dry ice-hexane bath for freezing and fixation.
Plasma samples were obtained by low-temperature centrifugation of whole blood. After homogenization, aliquots of each plasma sample were mixed directly with scintillation fluid, and the radioactivity was measured using a liquid scintillation counter (LSC). Frozen carcasses were sectioned, dried, and exposed/developed to determine total radioactivity in tissues/regions (including gastrointestinal contents). Pharmacokinetic parameters for total radioactivity in plasma and tissues were calculated using a non-compartmental model with WinNonLin software (version 8.3, Certara). After development of sections at each time point, 46 tissues/regions (including gastrointestinal contents) were analyzed for LE rats, and 45 tissues/regions (including gastrointestinal contents) were analyzed for SD rats. The radioactivity concentrations in unanalyzed regions were all lower than the lowest concentration in the analyzed tissues or regions.

With `Cc1ccc(C(=O)Nc2ccc(CN3CCN(C)CC3)c(C(F)(F)F)c2)cc1C#Cc1cnc2[nH]ncc2c1` [olverembatinib], the IC50 in series [1] stood at 0.0077 ± 1e-05 µM; in series [2] (BaF3, 72 h, read-out: IC50^I1) it was 0.0369 µM; in series [2] (BaF3, read-out: IC50^I2), 0.00544 µM; in series [3], 0.0258 ± 0.0029 µM.

On to `Cc1ncc(NC(=O)c2ccc(CN3CCN(C)CC3)c(C(F)(F)F)c2)cc1Nc1nccc(-c2cccnc2)n1` [flumatinib], for which the IC50 in series [2] (BaF3, 72 h, single agent, Y253H/T315I, 72 hours, read-out: IC50) was determined as 8.42 ± 0.245 µM.

For the compound `Cc1ccc(C(=O)Nc2ccc(CN3CCN(C)CC3)c(C(F)(F)F)c2)cc1C#Cc1cnc2cccnn12` [ponatinib], in series [1] (single-agent ponatinib at 60 nM and 48 nM, Fig. 5), the “inhibition of cell viability” value is “could be inhibited”. In addition, the anti-proliferative effect entry in the series on Ba/F3 BCR-ABL1 T315M (single-agent ponatinib, Fig. 6) is recorded as “no anti-proliferative effect”. For the same compound, the concentration for an effect of 90% (IC90) came out at 0.165 µM in series [2] (BaF3, read-out: IC90 value of ponatinib, ponatinib in combination with asciminib) and 0.0609 µM in series [2] (BaF3, read-out: IC90 value of ponatinib, ponatinib in combination with compound A). Moreover, the “minimum plasma concentration at steady state (Cssmin)” value in series [4] is 0.0643 µM.

`COc1cc(Nc2c(C#N)cnc3cc(OCCCN4CCN(C)CC4)c(OC)cc23)c(Cl)cc1Cl` [bosutinib]: the IC50 is 3.13 ± 0.0099 µM in series [1]; 3.97 ± 0.151 µM in the series with Ba/F3 BCR-ABL1 T315M (Mus musculus, BaF3, 72 h); 3.715 ± 0.0099 µM in series [2] (BaF3, 72 h); 3.92 ± 1.38 µM in series [3].

Take `O=C(Nc1ccc(OC(F)(F)Cl)cc1)c1cnc(N2CC[C@@H](F)C2)c(-c2cnccn2)c1` [[14C]-Compound A]: the “Total Radioactivity, Plasma” value in series [5] (Female SD rats, 4 hrs) turned out to be 15320 ng Eq./g; in series [5] (Male LE rats, 0.5 hrs), 7131 ng Eq./g; in series [5] (Male LE rats, 4 hrs), 11981 ng Eq./g; in series [5] (Male SD rats, 4 hrs), 10656 ng Eq./g. Besides, the “Total Radioactivity, Whole brain” value in series [5] (Female SD rats, 4 hrs) amounted to 9800 ng Eq./g; in series [5] (Male LE rats, 0.5 hrs), 4885 ng Eq./g; in series [5] (Male LE rats, 4 hrs), 6950 ng Eq./g; in series [5] (Male SD rats, 4 hrs), 6400 ng Eq./g.
